Data published in US9901638B2, “Composition and method for treating an autoimmune disease” (RedHill Biopharma Ltd., priority 2011, dated 2018).

Tested on: EAE relapse (remitting-relapsing MS model)
Test: EAE relapse study (PLP139-151/CFA), therapeutic treatment
Type: in vivo
Details: groups of 15; treatment from enrolment to Day 39; vehicle group 8 mice; FTY-720 3 mg/kg p.o. QD, RHB-104 p.o. BID
Text: Disease was induced by immunizing mice on Day 0 with PLP139-151 peptide emulsified in complete Freund's adjuvant (CFA).
To assess disease development, mice were weighed three times per week (Monday, Wednesday and Friday) from the time of immunization and scored daily for clinical signs of EAE starting on Day 9.
Enrollment of mice into groups occurred on the second day of clinical signs of EAE for each mouse. Mice were enrolled into treatment groups as they develop signs of EAE (rolling enrolment).
45 mice were enrolled into 3 groups of 15 and the treatment started on the day of enrolment. Assignment was balanced to achieve similar scores between the groups at enrolment.
Group 1—Vehicle (PBS), p.o., BID, 5 mL/kg (negative control)
Group 2—treated with FTY-720 (Fingolimod, Gilenya) 3 mg/kg, p.o., QD (a drug used for treatment of MS and used as a positive control)
Group 3—treated with RHB-104, p.o., BID, 5 mL/kg
Treatment started on the day of enrolment and continued until Day 39.
All dosing was performed at the same time (+/−1 hour) each day. […]
Mice were scored daily from Day 9 to Day 40, and body weight was measured three times/week (Monday, Wednesday and Friday), starting before immunization (Day −1). […]
Readouts were EAE scores on the scale 0-5 in 0.5 unit increments, and changes in body weight.
EAE was scored on scale 0 to 5 as described above.

Question: For CCCCCCCCc1ccc(CCC(N)(CO)CO)cc1 [FTY-720, Fingolimod], which “Number of mice showing relapse” value is on record?
Answer: 2 mice
